Where two headings read alike, the source gives them in different places.

In data set [1] the test system is lung cancer cells (line MV522). Put plainly: Cancer cell proliferation (MV522) assay. It is filed as cell-based. Particulars: MV522; Table 1; read-out: MV522 IC50. In a few lines: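 MTT reduction read-out was taken 72 h after addition of test agents, with no prior serum starvation. Cells were plated beforehand at two thousand per well in RPMI1640 containing 10% FBS and 2 mM glutamine and allowed one day to adhere.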

A short description of data set [2]: in vitro. It is filed as in vitro ADME, human. Particulars: human liver microsomes, 5 µM test compound, 37 °C, 2 h. In a few lines: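 HLM diluted to 5 mg/mL in 100 mM KPO4, preincubated 10 min at 37 °C with NADPH-regenerating system. Compound (5 µM final) incubated at 37 °C in triplicate, sampled at 0 and 2 h into ice-cold acetonitrile, then LC-MS analysis.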
In general terms: Microsomes from liver hold many membrane-bound enzymes, among them those of drug oxidation.

A short description of data set [3]: in vivo. Particulars: mouse, plasma, pH 2.3.
For data set [4], the target named is unphosphorylated VEGF-R2Δ50 (Homo sapiens, UniProt P35968, DEL940-989/E990V). Put plainly: biochemical. Particulars: read-out: FLVK ** (% inhibition).
For data set [5] the following is noted: vehicle PEG400:H2O pH 2.3 30:70.
For data set [6], the target named is human FGF-R1 (Homo sapiens, UniProt P11362, C488A/C584S/L457V). Put plainly: FGF-R spectrophotometric assay. It is filed as biochemical. Particulars: Table 1; compound concentration 1 µM; read-out: FGF-P* (% inhibition). Here is the method:
The spectrophotometric assay was carried out as described above for VEGF-R2, except for the following changes in concentration: FGF-R = 50 nM, ATP = 2 mM, and poly(E4Y1) =15 mM.

The test system of data set [7] is VEGF dependent retinal vascular development. Put plainly: In vivo assay of retinal vascular development in neonatal rats. Also on record: species or system rat. Particulars: Model P8, intravitreal, vehicle PEG/water 50:50. In a few lines: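 Neonatal rats given compound by intravitreal injection, vehicle usually 50% PEG 400/50% 300 mM sucrose, with vehicle in contralateral eye. Retinas removed six days later, ADPase-stained and flat-mounted; stained vessel area quantified by imaging and expressed as percent regression versus vehicle eye.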

In data set [8] the target is phosphorylated VEGF-R2Δ50 (Homo sapiens, UniProt P35968, DEL940-989/E990V). Briefly: biochemical. Particulars: read-out: FLVK -P** (% inhibition).
Data set [9] concerns VEGF dependent retinal neovascularization. Put plainly: Neonatal rat model of retinopathy of prematurity. In kind it is in vivo. Particulars: Model ROP, intravitreal, 10 mg/ml, vehicle PEG/water 70:30.

unphosphorylated VEGF-R2Δ50, sequence (P35968 with tags, fused parts or gaps DEL940-989/E990V limits assumed): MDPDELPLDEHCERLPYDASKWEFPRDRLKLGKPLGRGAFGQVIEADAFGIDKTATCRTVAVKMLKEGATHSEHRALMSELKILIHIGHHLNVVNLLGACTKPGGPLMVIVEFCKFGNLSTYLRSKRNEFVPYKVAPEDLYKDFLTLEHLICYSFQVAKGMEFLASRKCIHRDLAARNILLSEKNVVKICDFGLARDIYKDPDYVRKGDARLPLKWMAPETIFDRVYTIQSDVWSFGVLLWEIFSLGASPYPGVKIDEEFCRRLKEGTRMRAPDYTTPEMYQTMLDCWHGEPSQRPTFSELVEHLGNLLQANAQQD
human FGF-R1, sequence (P11362 456-766 L457V/C488A/C584S): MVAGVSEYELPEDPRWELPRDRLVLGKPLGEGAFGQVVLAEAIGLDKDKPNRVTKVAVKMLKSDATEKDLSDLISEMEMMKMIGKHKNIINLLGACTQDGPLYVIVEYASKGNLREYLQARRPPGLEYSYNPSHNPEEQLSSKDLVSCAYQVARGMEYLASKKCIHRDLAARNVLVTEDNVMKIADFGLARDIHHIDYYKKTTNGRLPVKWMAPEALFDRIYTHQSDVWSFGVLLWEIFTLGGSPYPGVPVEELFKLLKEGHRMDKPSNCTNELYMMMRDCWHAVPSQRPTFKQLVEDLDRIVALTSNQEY
phosphorylated VEGF-R2Δ50, sequence (P35968 with tags, fused parts or gaps DEL940-989/E990V limits assumed): as the sequence (P35968 with tags, fused parts or gaps DEL940-989/E990V limits assumed) above

Turning to `CCn1nc(C)cc1C(=O)Nc1cccc(Oc2ccc3c(/C=C/c4ccccn4)n[nH]c3c2)c1` [Reference Example 31(d), 6-[3-((1-Ethyl-3-methyl-1H-pyrazol-5-yl)carboxamido)phenoxy]-3-E-[2-(pridin-2-yl)ethenyl]-1H-indazole], the half-inhibitory concentration (IC50) – broadly, the concentration that inhibits the measured activity by half – in data set [1] was 5.2 µM. Besides, the “% remain (HLM, 2 h)” value in [2] is given as 110%. Further, the exposure (AUC) (commonly concentration integrated over time) is 238 µg·h/mL in data set [3] (ip, 25 mg/kg); 49.1 µg·h/mL in [3] (po, 10 mg/kg); 204 µg·h/mL in data set [3] (po, 25 mg/kg); 431 µg·h/mL in data set [3] (po, 50 mg/kg). Moreover, the inhibition (usually the share of the control response that was lost under treatment) at 0.05 µM in data set [4] came to 96%. For the same compound, the T1/2 worked out at 5.3 h in data set [5] (IP, 25 mg/kg); 3.1 h in [5] (PO, 10 mg/kg); 1.9 h in [5] (PO, 25 mg/kg); 39.3 h in data set [5] (PO, 50 mg/kg).

As to `C#CCNC(=O)c1ccccc1Sc1ccc2c(/C=C/c3ccccn3)n[nH]c2c1` [Reference Example 35(cc), 6-[2-(2-Propynylcarbamoyl)phenylsulfany]-3-E-[2-(pyridin-2-yl)ethenyl]-1H-indazole], in data set [2], the “% remain (HLM, 2 h)” value worked out at 31%. The inhibition at 0.05 µM in data set [4] is 89%. In data set [6], the inhibition at 1 µM worked out at 74%.

As to `CCONC(=O)c1ccccc1Sc1ccc2c(/C=C/c3ccccn3)n[nH]c2c1` [Reference Example 35(dd), 6-[2-(ethoxycarbamoyl)phenylsufanyl]-3-E-[2-(pyridin-2-yl)ethenyl]-1H-indazole], in data set [2], the “% remain (HLM, 2 h)” value is given as 26%. Further, in data set [7] (5 mg/ml), the “Initial Evaluation” value is “++/+++ var”.

As for `CC(C)ONC(=O)c1ccccc1Sc1ccc2c(/C=C/c3ccccn3)n[nH]c2c1` [Reference Example 35(k)], the “% remain (HLM, 2 h)” value in data set [2] came out at 14%. For the same compound, the inhibition at 0.05 µM in data set [4] stood at 85%. In addition, in [6], the inhibition at 1 µM amounted to 34%.

Take `O=C(NNc1ccccn1)c1ccccc1Sc1ccc2c(/C=C/c3ccccn3)n[nH]c2c1` [Reference Example 35(n), 6-[2-(N^2-(pyrid-2-ylhydrazino)carbonyl)phenylsulfanyl]-3-E-[2-(pyridin-2-yl)ethenyl]-1H-indazole]: in data set [1], the IC50 came to 5.1 µM. Moreover, the “% remain (HLM, 2 h)” value in [2] is on record as 47%.

As for `CCn1nc(C)cc1C(=O)Nc1cccc(C(=O)c2ccc3c(/C=C/c4ccccn4)n[nH]c3c2)c1` [Reference Example 41(a), 6-[3-((1-Ethyl-3-methyl-1H-pyrazol-5-yl)carboxamido)benzoyl]. 3-E-[2-(pyridin-2-yl)ethenyl]-1H-indazole], the “% remain (HLM, 2 h)” value in data set [2] was 96%. In [8], the inhibition at 0.05 µM turned out to be 94%. Besides, the % Inhibition (as a rule, how much of the control response was suppressed) in data set [7] (0.5 mg/ml) is on record as 0%. In addition, in data set [9], the “% Inhibition” value is given as 64% and the “Initial Evaluation” value is given as “+++ (three pluses give to retinas with near total regression (approximately 75% or greater))”.

For the compound `CCn1nc(C)cc1C(=O)Nc1cc(C(=O)c2ccc3c(/C=C/c4ccccn4)n[nH]c3c2)ccc1C` [Reference Example 41(ee), 6-[3-((1-Ethyl-3-methyl-1H-pyrazol-5-yl)carboxamido)-4-methylbenzoyl]-3-E-[2-(pyridin-2-yl)ethenyl]-1H-indazole], the IC50 in data set [1] came out at 9.4 µM. Besides, the “% remain (HLM, 2 h)” value in data set [2] stood at 47%. Besides, in data set [6], the inhibition at 1 µM turned out to be 94%.

For the compound `CCCn1nc(C)cc1C(=O)Nc1cccc(C(=O)c2ccc3c(/C=C/c4ccccn4)n[nH]c3c2)c1` [Reference Example 41(r)], in data set [2], the “% remain (HLM, 2 h)” value was 83%. In addition, the inhibition at 0.05 µM in data set [4] turned out to be 100%. For the same compound, the inhibition at 1 µM in [6] stood at 92%.

The values above are taken from patent EP1614683B1, “Indazole compounds and pharmaceutical compositions for inhibiting protein kinases, and methods for their use” (priority 1999, dated 2001).
